Data on ten molecules can be found in patent US5998521A, “Aqueous fluoropolymer compositions and method of preparing the same” (3M Innovative Properties Company, priority 1996, dated 1999).

Series [1] in a line: Hydrolytic stability of esters in concentrated aqueous ammonium hydroxide. The series is classed as physicochemical. As to conditions: 2 days. The text has this: The acrylate and methacrylate esters from Examples D1-D11 were fully recoverable with essentially no degradation after being stirred with concentrated aqueous ammonium hydroxide for a period of 2 days.
Series [2] has as its system rats. The experiment in a line: Acute LD50, one-time feeding study of rats over 21 days. The series is classed as in vivo, rat. To be noted: for acute toxicity: rat, in vivo. Here is the method: (§1) Acute LD50 measurements for a one-time feeding study of rats were determined over a 21 day period for both the α-branched perfluorocarboxylate salt, C7 F15 CF(CF3)COO^- NH4^+, and its straight chain isomer, CF3 (CF2)8 COO^- NH4^+.

Assay in series [3]: as above
The series is classed as in vivo, rat. To be noted: rat, in vivo, po; one-time feeding, rats, 21 day period. Here is the method:
as §1

In series [4] the test system is rats. To be noted: Goeche-Flora et al.; cited from earlier work.
Series [5] in a line: Thermal degradation in aqueous media. The series is classed as physicochemical. As to conditions: for volatile products formed: aqueous, approximately 80° C. for several hours, or similar way.
Protocol: The thermal degradation of an aqueous α-branched perfluoroalkylcarbonyl fluoride and the characterization of the products produced from the degradation were carried out using the following procedure. […] 5.7 g of volatile degradation products were then collected by azeotropic distillation using a Dean-Stark apparatus.
The thermal degradation of C7 F15 CF(CF3)COF (from Example A4) dispersed in water was also carried out by heating the aqueous mixture for several hours at approximately 80° C.
Series [6] in a line: Thermogravimetric analysis of neat perfluorocarboxylate salts. The series is classed as physicochemical. As to conditions: neat salt, nitrogen, 10° C./min. From the text:
Thermal degradation measurements were made on a series of neat perfluorocarboxylate salts, including several α-branched open chain structures (Examples N2-N9), a primarily linear open chain structure (Example N10-Fluorad™ FC-143 Fluorochemical Surfactant, commercially available from 3M Company, St. Paul, Minn.), and a closed chain (i.e., cyclic) structure (Example N11--made by the electrochemical fluorination of benzoic acid and hydrolysis in the presence of KOH, as described in U.S. Pat. No. 2,567,011 (Diesslin et al.)).
The perfluorocarboxylate salts were tested using a Perkin-Elmer TGA 7 thermogravimetric analysis apparatus and a salt sample size of approximately 5 mg, a heating rate of 10° C./min, and a nitrogen gas flow rate of 40-45 mL/min. Using the TGA 7 software, the following temperatures were recorded: (1) the onset temperature of decomposition, (2) the temperature at which 50% of the sample weight was lost, and (3) the temperature at which 90% of the sample weight was lost.

The nature of series [7]: Surface tension and critical micelle concentration of aqueous surfactant solutions. Type of series: physicochemical. To be noted: Table 5, deionized water; for Surf. Tens.: at the CMC. The method, then:
Critical Micelle Concentration (CMC): The critical micelle concentration is defined as the concentration at which further surface tension is no longer lowered with increasing levels of surfactant. To determine CMC, surface tension is measured as a function of surfactant concentration using a K-12 Processor Tensiometer in conjunction with a 665 Dosimat automatic surfactant injection device (also commercially available from Kruss GmbH). Surface tension is then plotted vs. log concentration and the data points are connected. The resulting curve has a nearly horizontal flat portion at concentrations above the CMC and has a negative steep slope at concentrations below the CMC. The CMC is defined as the lowest surfactant concentration in the horizontal flat portion of the curve.
(§2) Then the critical micelle concentration (CMC) was determined for each surfactant.
as §2

A short description of series [8]: Emulsion copolymerization of hexafluoropropylene and vinylidene fluoride. The text has this:
The following procedure was used to evaluate C7 F15 CF(CF3)COO^- NH4^+ (from Ex. M1) as an emulsifier to copolymerize hexafluoropropylene (HFP) and vinylidene fluoride.
A 1 gallon, vertically agitated stainless steel reactor with pressure and temperature controls was evacuated and twice purged with nitrogen. Using an isolated vacuum, a solution comprised of 2 g of ammonium persulfate (initiator) and 6 g of dipotassium phosphate dissolved in 2800 g of deionized water was introduced into the reactor. The remaining vacuum on the reactor was vented with nitrogen, and the solution was degassed twice under agitation using alternate vacuum and nitrogen purges. A sufficient amount of a solution of C7 F15 CF(CF3)COO^- NH4^+ in approximately 20 g of 60-70° C. deionized water was introduced to the reactor under isolated vacuum to give a calculated final concentration of 350 ppm emulsifier in the aqueous solution. The reactor was vented with nitrogen, the solution was agitated very briefly, and the reactor was evacuated of nitrogen and isolated. Then the reactor was vented with hexafluoropropylene monomer to a pressure of approximately 10 psig (1280 torr total pressure), and the temperature of the batch was raised to 72° C. with high agitation. Maintaining the temperature at 72° C., a monomer mixture of 60% (wt) of vinylidene fluoride and 40% (wt) hexafluoropropylene was fed from a tared gas cylinder into the head space of the reactor to maintain a reactor pressure of 130 psig (7480 total pressure). After feeding in about 1 kg of monomer blend (approximately 3.75 hours duration), the introduction of monomer was ceased, the reaction was allowed to cool to room temperature, and any residual unreacted monomer was vented.
The resulting latex polymer was drained from the reactor, and percent solids of the latex was determined to be 25% by weight as measured by drying 10 g of latex in a forced air oven for 16 hours at 105° C.
The reactor body was separated from the reactor head, and a visual inspection of the reactor was made to determine the amount of coagulated polymer in the reactor (the amount should be minimal in a good polymerization reaction). A qualitative rating was assessed, ranging from "none" to "little" to "some."
The latex stability was determined by half filling a 16 oz (450 mL) jar with latex and shaking several hours in the horizontal position, quantitatively rating the latex after shaking using a 3-point scale ranging from 0=very stable to 3=unstable.
Particle size in the latex was determined using 90° scattering on a Coulter sub-micron particle size analyzer.
Degree of foaming was rated using the following qualitative scale: 0=not foamy, 1=slightly foamy, 2=moderately foamy, and 3=very foamy.
In Example P2, the same experiment was run as in Example P1, except that the concentration of C7 F15 CF(CF3)COO^- NH4^+emulsifier was raised to 3500 ppm, the reaction time decreased from 3.75 to 3.5 hours, and the reaction temperature increased from 72° C. to 78° C.
In Comparative Examples P3-P6, the same experiment was run as in Example P1, except that C8 F17 SO2 N(C2 H5)CH2 COO^- K^+ (Fluorad™ FC-128 Fluorochemical Surfactant, available from 3M Company, St. Paul, Minn.), C7 F15 COO^- H4 N^+ (Fluorad™ FC-143 Fluorochemical Surfactant), and Surflon™ S111S Fluorochemical Surfactant (believed to be nominally telomer-based n-C9 F19 COO^- H4 N^+, commercially available from Asahi Glass Corp., Japan) were substituted for C7 F15 CF(CF3)COO^- HN^+ emulsifier.

Series [9] relates to rats. Briefly: Rat desiccator jar chamber test, exhaled degradation products. Type of series: in vivo. Here is the method:
Additional biological testing of C7 F15 CF(CF3)COO^- NH4^+ in rats was conducted using the following test apparatus. An uptake desiccator jar chamber was designed with top and bottom portions, the top portion equipped with an inlet port, an outlet port, oxygen monitor and pressure gage. An oxygen gas tank supplied oxygen into the inlet port, and the oxygen level in the chamber was maintained at a normal ambient level as measured by the oxygen monitor and pressure gage. The outlet port was connected in series with a carbon dioxide scrubber and particulate filter, which in turn was connected to a loop containing a stainless steel bellows pump operating at about 2 L/min. Most of the gas in the loop was recycled into the inlet port, but about 100 mL/min was directed through a secondary loop to a gas chromatograph equipped with a 0.5 mL gas sampling loop.
A rat dosed at 500 mg/kg was placed in the bottom portion of the chamber, the top portion was attached, and the assembled chamber was placed in an ice-filled pan to allow for the condensation of water. The oxygen flow was started, and the exhaust gases were monitored for the presence of CF3 CF=CF(C6 F13) and C7 F15 CFHCF3, aqueous degradation products of C7 F15 CF(CF3)COOH, using known standards of this olefin and hydride in the gas chromatograph. […] After 24 minutes, one slight chromatographic peak was noted, corresponding to the monohydride. After 92 minutes, the peak became noticeably larger and a second peak formed, corresponding to the olefin.

Series [10] can be described thus: Degradation in aqueous solution at room temperature over 1 year. The series is classed as physicochemical. The method, then: The α-branched open chain ammonium salt compounds from Examples N3-N6 were dissolved in deionized water at a concentration of 5% by weight (0.5 g ammonium salt in 10 mL water) and were stored at room temperature.

Some results are limits rather than exact numbers.

Consider `C=CC(=O)OCCOC(=O)C(F)(F)C(F)(F)C(F)(F)C(F)(F)C(F)(F)C(F)(F)C(F)(F)F` [C7 F15 COOCH2 CH2 OCOCH=CH2], for which the hydrolytic stability entry in series [1] was “readily hydrolyzed”.
In the case of `O=C(O)C(F)(F)C(F)(F)C(F)(F)C(F)(F)C(F)(F)C(F)(F)C(F)(F)C(F)(F)C(F)(F)F` [C9 F19 COO^- NH4^+, CF3 (CF2)8 COO^- NH4^+, reference compound], the “acute toxicity” value with rats [2] is “moderately toxic”. The wasting syndrome result in the series with rats [2] (rats) is recorded as “Wasting syndrome was observed”. The “toxicity relative to the α-branched isomer” value with rats [2] (rats, LD50) is given as “ca. 10 times”. In addition, in [3], the LD50 at 504 h is 50 to 100 mg/kg. Moreover, the “toxicity (literature, words)” value with rats [4] is given as “moderately toxic”.
Take `O=C(F)C(F)(C(F)(F)F)C(F)(F)C(F)(F)C(F)(F)C(F)(F)C(F)(F)C(F)(F)C(F)(F)F` (stereo not drawn) [Example A4, C7 F15 CF(CF3)COF]: the “volatile products formed” value in series [5] is given as “The same volatile products were formed as in Example N1”. Further, the “volatile degradation products collected” value in [5] (from 8 g, refluxed in deionized water 2 hours) is reported as 5.7 g. Besides, in [5] (in water), the “monohydride in volatile degradation products” value worked out at 85% and the “olefin in volatile degradation products” value is reported as 15%.
With `O=C(O)C(F)(C(F)(F)F)C(F)(F)C(F)(F)C(F)(F)C(F)(F)C(F)(F)C(F)(F)C(F)(F)F` (stereo not drawn) [Example M1, C7 F15 CF(CF3)COOH], the “volatile products formed” value in [5] was “the same monohydride and olefin”.
Regarding `O=C(O)C(F)(C(F)(F)F)C(F)(F)C(F)(F)C(F)(F)C(F)(F)C(F)(F)C(F)(F)C(F)(F)F` (stereo not drawn) [Example M14, C7 F15 CF(CF3)COO^- H4 N^+], in [6], the “Temperature for: 50% loss” value was 163 °C, the “Temperature for: 90% loss” value was 174 °C and the “Temperature for: Onset” value came to 151 °C. For the same molecule, in series [7], the “Surf. Tens.” value is given as 16.5 dynes/cm and the CMC is listed as 2500 ppm. In addition, the “acute toxicity” value in the series on rats [2] (listed as C7 F15 CF(CF3)COO^- NH4) was “relatively low toxicity”. For the same molecule, in the series with rats [2] (listed as C7 F15 CF(CF3)COO^- NH4+), the “acute toxicity” value is “only slightly toxic”. In the series with rats [2] (rats), the “time of deaths from toxic doses” value is 2 to 3 days, the “time until rats began regaining weight” value worked out at 3 days and the wasting syndrome result is reported as “No wasting syndrome was noted”. The molecule further showed an LD50 at 504 h in series [3] of 500 to 1000 mg/kg. Further, in series [8] (emulsifier 350 ppm), the “Latex Stability” value is 2. The “Latex Stability” value in [8] (emulsifier 3500 ppm) was determined as 0. Besides, in the series with rats [9] (after 217 minutes), the “olefin and monohydride in exhaust gas” value is listed as “both peaks became significantly larger”. Besides, the “olefin and monohydride in exhaust gas” value in the series on rats [9] (initially) is recorded as “no olefin or hydride were detected”. Further, in the series with rats [9] (rat), the metabolism and elimination result is recorded as “being metabolized by the rat to volatile metabolites which were eliminated from the rat via transpiration”. In addition, in the series with rats [9] (rat dosed at 500 mg/kg), the post-exposure observation result is recorded as “no evidence of toxicity (death) or evidence of wasting syndrome” and the “time at which monohydride peak noted in exhaust gas” value was 24 min. Moreover, the “time at which olefin peak formed in exhaust gas” value in the series with rats [9] (rat dosed at 500 mg/kg, monohydride peak noticeably larger) came out at 92 min.
With `O=C(O)C(F)(C(F)(F)F)C(F)(F)C(F)(F)C(F)(F)C(F)(F)C(F)(F)C(F)(F)C(F)(F)C(F)(F)F` (stereo not drawn) [Example M17, C8 F17 CF(CF3)COO^- H4 N^+], in [6], the “Temperature for: 50% loss” value stood at 162 °C, the “Temperature for: 90% loss” value came out at 184 °C and the “Temperature for: Onset” value worked out at 142 °C. Moreover, in series [7], the “Surf. Tens.” value stood at 14.7 dynes/cm and the CMC is on record as 2300 ppm.
As for `O=C(O)C(F)(C(F)(F)F)C(F)(F)C(F)(F)C(F)(F)C(F)(F)C(F)(F)C(F)(F)C(F)(F)C(F)(F)C(F)(F)C(F)(F)F` (stereo not drawn) [Example M18, C10 F21 CF(CF3)COO^- H4 N^+], in [6], the “Temperature for: 50% loss” value was found to be 181 °C, the “Temperature for: 90% loss” value was 188 °C and the “Temperature for: Onset” value worked out at 164 °C. Besides, in series [7], the “Surf. Tens.” value turned out to be 14.8 dynes/cm and the CMC came out at 600 ppm.
With `O=C(O)C(F)(C(F)(F)F)C(F)(F)C(F)(F)C(F)(F)C(F)(F)C(F)(F)F` (stereo not drawn) [Example M21, C5 F11 CF(CF3)COO^- K^+], in series [6] (listed as N9), the “Temperature for: 50% loss” value amounted to 178 °C, the “Temperature for: 90% loss” value is 188 °C and the “Temperature for: Onset” value came to 167 °C. In addition, in series [7], the “Surf. Tens.” value is 22.5 dynes/cm and the CMC is > 10000 ppm.
As for `O=C(O)C(F)(F)C(F)(F)C(F)(F)C(F)(F)C(F)(F)C(F)(F)C(F)(F)F` [FC-143, C7 F15 COO^- H4 N^+], in series [6], the “Temperature for: 50% loss” value stood at 188 °C, the “Temperature for: 90% loss” value was found to be 202 °C and the “Temperature for: Onset” value is 173 °C. In series [7], the “Surf. Tens.” value was 21.5 dynes/cm and the CMC is 8000 ppm. Further, in [10], the “degradation after 1 year” value is listed as “no signs of degradation”. The “Latex Stability” value in series [8] (emulsifier 350 ppm) is on record as 2.
Take `CCN(CC(=O)O)S(=O)(=O)C(F)(F)C(F)(F)C(F)(F)C(F)(F)C(F)(F)C(F)(F)C(F)(F)C(F)(F)F` [Fluorad ™ FC-128, C8 F17 SO2 N(C2 H5)CH2 COO^- K^+]: the entries for the “Latex Stability” value in series [8] (emulsifier 100 ppm) and in [8] (emulsifier 350 ppm) were 2 and 0, respectively.
